The results in this text go back to ChEMBL document CHEMBL1133487, “Synthesis and biological evaluation of 2,5-dihydropyrazol” (Bioorg Med Chem Lett, 2000).

The target of assay [1] is Phosphodiesterase 3 (Homo sapiens, UniProt Q14432+Q13370). Nature of the assay: Inhibitory potency against guinea pig ventricular phosphodiesterase 3. It counts as protein assay, Cavia porcellus. The conditions noted are these: target entry is the homologue from another species.
The target of assay [2] is Phosphodiesterase 4 (Homo sapiens, UniProt P27815+Q08499+Q07343+Q08493). Nature of the assay: Inhibitory potency against guinea pig ventricular phosphodiesterase 4. It counts as protein assay, Cavia porcellus. The note with it: target entry is the homologue from another species.
The subject of assay [3] is Cavia porcellus. The assay is described as follows: Inhibition of Eosinophilia after peroral administration at 10 mg/Kg compound in guinea pig. The note with it: po. The format is functional.
In assay [4] the test system is Canis familiaris. The assay is described as follows: Minimum emetic dose in dogs after intravenous administration. The format is functional, Canis lupus familiaris.
In assay [5] the test system is Cavia porcellus. Nature of the assay: Inhibition of histamine induced bronchoconstriction in guinea pig after intravenous administration. It counts as functional.
Assay [6] relates to Canis familiaris. Nature of the assay: Minimum emetic dose in dogs after peroral administration. The format is functional, Canis lupus familiaris.

Each structure is given as a SMILES string. Bounds are passed on as bounds.

As to `O=c1c2cn(Cc3ccccc3)c3ccccc3c-2nn1C1CC2CCC1C2` (configuration not stated), the IC50 (in general, the point on the concentration scale where inhibition reaches its midpoint) in assay [1] was greater than 20 µM; in assay [2], 1.4 µM.
The like results for `O=c1c2cn(Cc3ccccc3)c3ccccc3c-2nn1C1CCCC1` were, in that order, 26 µM and 0.7 µM.
On the same counts, the results for `CCCCn1[nH]c2c(cnc3ccccc32)c1=O` are 136 µM and 90 µM.
Regarding `CCCCn1nc2c3ccccc3n(CC3CCCCC3)cc-2c1=O`, the inhibition in vivo (commonly the percentage by which the read-out fell short of the control) at 10 mg/kg in assay [3] worked out at 60%. Moreover, the IC50 in assay [1] turned out to be 111 µM; in assay [2] it was 0.7 µM. Also, the Dose in assay [4] was greater than 1 mg/kg. For the same compound, the ED50 – broadly, the dose at which the effect has come halfway, by size or by number of responders – in assay [5] is greater than 0.1 mg/kg.
`O=c1c2cn(Cc3ccccc3)c3ccccc3c-2nn1CC1CCCCC1`: the results for the IC50 in assay [1] and in assay [2] were 102 µM and 24 µM, respectively.
For the compound `CCCCn1nc2c3ccccc3n(Cc3cccc([N+](=O)[O-])c3)cc-2c1=O`, the IC50 in assay [1] was greater than 20 µM; in assay [2] it was 11 µM.
On the same counts, the results for `CCCCCn1nc2c3ccccc3n(Cc3ccccc3)cc-2c1=O` are 120 µM and 6.4 µM.
As to `CC(C)(C)n1nc2c3ccccc3n(Cc3cccs3)cc-2c1=O`, the results for the IC50 in assay [1] and in assay [2] were greater than 20 µM and 0.8 µM, respectively.
On the same counts, the results for `O=c1c2cn(CC3CCCCC3)c3ccccc3c-2nn1C1CCCC1` are greater than 20 µM and 0.4 µM.
The like results for `O=c1c2cn(Cc3ccccc3)c3ccccc3c-2nn1CCc1ccccc1` were, in that order, greater than 100 µM and 10 µM.
On the same counts, the results for `O=c1c2cn(Cc3ccccc3)c3ccccc3c-2nn1Cc1ccccc1` are 25 µM and 7 µM.
For `O=c1[nH]nc2c3ccccc3n(Cc3ccccc3)cc1-2`, the IC50 was determined as 48 µM in assay [1] and 37 µM in assay [2].
In assay [3], `CC(C)(C)n1nc2c3ccccc3n(Cc3ccccc3)cc-2c1=O` gave an inhibition in vivo at 10 mg/kg of 51%. In addition, the IC50 in assay [1] was greater than 100 µM; in assay [2], 2.1 µM. Also, the Dose in assay [6] was greater than 10 mg/kg.
Turning to `O=c1c2cn(Cc3cccs3)c3ccccc3c-2nn1C1CCCC1`, in assay [3], the inhibition in vivo at 10 mg/kg was determined as 62%. In addition, the results for the IC50 in assay [1] and in assay [2] were greater than 20 µM and 0.4 µM, respectively. Besides, the Dose in assay [4] was greater than 3 mg/kg. The ED50 in assay [5] is 0.083 mg/kg.
Regarding `CCCCn1nc2c3ccccc3n(CCc3ccccc3)cc-2c1=O`, the IC50 in assay [1] was greater than 200 µM; in assay [2], 160 µM.
The like results for `CCn1nc2c3ccccc3n(Cc3ccccc3)cc-2c1=O` were, in that order, 10 µM and 3 µM.
On the same counts, the results for `Cn1nc2c3ccccc3n(Cc3ccccc3)cc-2c1=O` are 67 µM and 14 µM.
For `CC(C)(C)n1nc2c3ccccc3n(CC3CCCCC3)cc-2c1=O`, the results for the IC50 in assay [1] and in assay [2] were greater than 20 µM and 0.5 µM, respectively.
On the same counts, the results for `CCCCn1nc2c3ccccc3n(-c3ccccc3)cc-2c1=O` are 68 µM and 18 µM.
With `CCCCn1nc2c3ccccc3n(Cc3ccccc3)cc-2c1=O`, the inhibition in vivo at 10 mg/kg in assay [3] came to 52%. For the same compound, the IC50 in assay [1] came to 31 µM; in assay [2] it was 2.1 µM. Besides, the Dose in assay [4] is greater than 3 mg/kg. This compound also yielded an ED50 in assay [5] greater than 0.1 mg/kg.
As to `CCCCn1nc2c3ccccc3n(Cc3cccc(N)c3)cc-2c1=O`, the IC50 was greater than 200 µM in assay [1] and 12 µM in assay [2].
In assay [3], `CCCCn1nc2c3ccccc3n(Cc3cccc(Cl)c3)cc-2c1=O` had an inhibition in vivo at 10 mg/kg of 53%. The IC50 in assay [1] is greater than 20 µM; in assay [2], 2.3 µM. Also, in assay [6], the Dose is greater than 10 mg/kg. Besides, the ED50 in assay [5] amounted to 0.062 mg/kg.
In the case of `O=c1c2cn(Cc3ccccc3)c3ccccc3c-2nn1CC1CCC1`, the IC50 in assay [1] was greater than 200 µM; in assay [2] it was 0.8 µM.
On the same counts, the results for `CC(C)n1nc2c3ccccc3n(Cc3ccccc3)cc-2c1=O` are 86 µM and 1.2 µM.
`CCCCn1nc2c3ccccc3n(Cc3cccs3)cc-2c1=O` gave an inhibition in vivo at 10 mg/kg in assay [3] of 56%. The IC50 in assay [1] was greater than 20 µM; in assay [2] it was 2.7 µM. The compound also gave a Dose in assay [6] greater than 10 mg/kg. In assay [5], this compound showed an ED50 of 0.037 mg/kg.
`CCn1c(=O)c2ccccc2n(-c2cccc([N+](=O)[O-])c2)c1=O` [NITRAQUAZONE]: the IC50 in assay [1] is greater than 200 µM; in assay [2] it was 0.05 µM.
`COc1ccc(C2CNC(=O)C2)cc1OC1CCCC1` (configuration not stated) [ROLIPRAM]: in assay [3], at 10 mg/kg the inhibition in vivo was 58%. In assay [4], the Dose amounted to 0.03 mg/kg. In addition, the 50% effect level in assay [5] (ED50) was put at a dose of 0.004 mg/kg.
